One assay relates to TNF-α production of PEC. Put plainly: Amount of induced TNF-α production of PEC from treated mice when treated with LPS. The assay is classed as in vivo, Slc: ddY mice. The settings on record: PEC collected 22 hours after intraperitoneal administration, LPS 100 ng/mL for 3 hours. As to the method: The test sample AU-1833C was dissolved in DMSO so as to be 50 mg/mL and then diluted five-fold with saline (product name: Otsuka normal saline, manufactured by Otsuka Pharmaceutical Co., Ltd.) to prepare a test sample solution of 10 mg/mL (including 20% DMSO).
The animals used were Slc: ddY mice (female, 6-week old) and grouped as follows.
The mice purchased at the age of 5 weeks were acclimated for 5 days under a condition of free access to water and feed (regular diet (product name: CE-2, manufactured by CLEA Japan, Inc.)). Body weights of the mice after acclimation at the age of 6 weeks were measured and the mice were grouped based on the measured values so that there was no difference in the body weight among the groups. 200 μL of the test sample solutions or 20% DMSO saline as the non-treated group was respectively administered to the mice by intraperitoneal injection. […] Using a portion of the collected saline and a Turk's solution (product name: Turk's solution, manufactured by Wako Pure Chemical Industries, Ltd.), a concentration of PEC (cells/mL), intraperitoneally exudated nucleated cells such as white blood cells, was measured. The measured PEC concentration was multiplied by the amount of saline intraperitoneally injected (5 mL) to calculate a PEC count per mouse (cells/mouse). […]

In assay [1] the test system is mouse-derived macrophage-like cell line (RAW264). Put plainly: TNF-α production-inducing activity in cells. The assay is classed as cell-based. To be noted: 24 hours. As for the experimental part:
A TNF-α production-inducing activity in a mouse-derived macrophage-like cell line (RAW264, provided: RIKEN BioResource Research Center) was investigated. Using, as test samples, AU-1833C (synthesized in Example 1), lentinan (product name: Lentinan, manufactured by FUJIFILM Wako Pure Chemical Corporation) and fucoidan (product name: Fucoidan Fucus vesiculosus-derived, manufactured by Sigma-Aldrich Co. LLC), test sample solutions were prepared so that the final concentrations of the test samples were 50, 100, and 200 μg/mL. First, all test samples were dissolved in dimethylsulfoxide (DMSO) so as to have a 1,000-fold concentration of the final concentration, and then 100-fold dilution was carried out with deionized water thereby to prepare test sample solutions having a 10-fold concentration (including 1% DMSO) of the final concentrations. […] A ratio of a TNF-α concentration in each test sample group relative to a TNF-α concentration in the non-treated group was calculated from the measured TNF-α concentrations and defined as the TNF-α production-inducing activity.

In assay [2] the test system is peritoneal exudate cell (PEC) count. In words: PEC count in mice after intraperitoneal administration. To be noted: intraperitoneal injection of 200 μL of 10 mg/mL, 22 hours after administration, compared with control non-treated mice (FIG. 4(a)). The assay is classed as in vivo, Slc: ddY mice. As for the experimental part:
The test sample AU-1833C was dissolved in DMSO so as to be 50 mg/mL and then diluted five-fold with saline (product name: Otsuka normal saline, manufactured by Otsuka Pharmaceutical Co., Ltd.) to prepare a test sample solution of 10 mg/mL (including 20% DMSO). The animals used were Slc: ddY mice (female, 6-week old) and grouped as follows. The mice purchased at the age of 5 weeks were acclimated for 5 days under a condition of free access to water and feed (regular diet (product name: CE-2, manufactured by CLEA Japan, Inc.)). […] The mice after a lapse of 22 hours from administration were sacrificed under isoflurane anesthesia, 5 mL of saline was intraperitoneally injected, the abdominal area was rubbed about 10 times, and then intraperitoneal cells were collected by collecting the saline from the abdominal cavity. Using a portion of the collected saline and a Turk's solution (product name: Turk's solution, manufactured by Wako Pure Chemical Industries, Ltd.), a concentration of PEC (cells/mL), intraperitoneally exudated nucleated cells such as white blood cells, was measured. The measured PEC concentration was multiplied by the amount of saline intraperitoneally injected (5 mL) to calculate a PEC count per mouse (cells/mouse).

Consider `O=C1OCCCCCCOC(=O)c2ccccc2C(=O)OCCCCCCOC(=O)c2ccccc21` [AU-1833C, 7,8,9,10,11,12,19,20,21,22,23,24-dodecahydro-dibenzo[1,6,13,18]-tetraoxacyclooctadecine-2,5,14,17-tetrone], for which the “TNF-α production amount per cell in PEC” value in the assay with TNF-α production of PEC (compared with control non-treated mice (FIG. 4(b))) is listed as “significantly higher TNF-α production amount per cell in PEC”. For the same compound, the “PEC-derived TNF-α production amount per mouse” value in the assay on TNF-α production of PEC (compared with control non-treated mice (FIG. 4(c))) was “significantly higher PEC-derived TNF-α production amount per mouse”. Besides, in assay [1] (RAW264 cells, 50, 100 and 200 μg/mL, ELISA, compared with control non-treated group (FIG. 3)), the “TNF-α production-inducing activity (ratio of TNF-α concentration relative to non-treated group)” value is reported as “significantly higher than that of the control non-treated group”. Besides, the “TNF-α production-inducing activity compared with lentinan and fucoidan at the same concentration” value in assay [1] (RAW264 cells, each of 50, 100 and 200 μg/mL, ELISA (FIG. 3)) was “significantly higher than those of lentinan and fucoidan at the same concentration”. Further, the PEC counts result in assay [2] is recorded as “significantly higher PEC counts”.

The values above are taken from patent US20220151985A1, “IMMUNOSTIMULATOR AND FOOD OR BEVERAGE FOR IMMUNOSTIMULATION” (AMINO UP CO., LTD., priority 2019, published 2022).
